Test results as given in publication PMC5384759 (ACS Chemical Neuroscience, 2016).
Where two headings read alike, the source gives them in different places.

Experiments:
[1] = type: in vivo, CD-1 mice; conditions: for half-life / AUC: female, CD-1, mouse, ip; for AUC: area under the concentration-time curve
[2] = CIT metabolism in placental microsomal preparations; type: in vitro ADME, mice; conditions: E14 and E18, 500 ng/mL CIT, 2 h
[3] = type: in vivo, CD-1 mice
[4] = CIT metabolism in fetal liver microsomal preparations; type: in vitro ADME, mice; conditions: 2 h incubation
[5] = cited from earlier work
[6] = Ex vivo transplacental transfer of CIT and DCIT; type: in vitro ADME, mice
[7] = target: SERT; conditions: read-out: inhibitory constant (Ki) of SERT-mediated 5-HT uptake; cited from earlier work
[8] = patients, racemic CIT; cited from earlier work
[9] = nonpregnant mice, fixed dose 0.6 mg CIT ip, serum
[10] = pregnant mice GD14, weight-adjusted dose 20 mg/kg CIT ip, maternal serum
[11] = pregnant mice GD18, weight-adjusted dose 20 mg/kg CIT ip, maternal serum
[12] = pregnant mice GD18FD, fixed dose 0.6 mg CIT ip, maternal serum

**Q.** Which results are given for `CN(C)CCCC1(c2ccc(F)cc2)OCc2cc(C#N)ccc21` (racemic) [CIT, (±)-citalopram]?
**A.** increase in AUC in the GD18 group over the GD18FD dams ([1]; 20 mg/kg vs fixed 0.6 mg CIT ip, dose increased by 100%): 141%; half-life ([1]; maternal serum, 0.6 mg): 0.93 ± 0.06 h; AUC ([1]; maternal serum, 0.6 mg, pregnant mice GD18FD, fixed dose 0.6 mg CIT ip): 927 ± 28 ng·h/mL; half-life ([1]; maternal serum, 20 mg/kg): 1.08 ± 0.07 h; half-life ([1]; serum, 0.6 mg): 1.06 ± 0.04 h; AUC ([1]; serum, 0.6 mg, nonpregnant mice, fixed dose 0.6 mg CIT ip): 1230 ± 39 ng·h/mL; half-life ([1]; serum, 20 mg/kg): 1.05 ± 0.03 h; reduction in the AUC of serum CIT in GD18FD dams compared to nonpregnant mice ([1]; fixed dose 0.6 mg CIT ip): 25%; CIT absorption phase ([1]; nonpregnant mice, fixed dose 0.6 mg CIT ip): 1.67; C0, peak concentration [1, 9]: 2050 ± 36 ng/mL; CL, clearance [1, 9]: 486 ± 9 mL·h; VD, volume of distribution [1, 9]: 29.3 ± 2.3 mL; AUCdn, dose-normalized AUC [1, 10]: 1.45 ± 0.10 (ng × h/mL)μg; C0, peak concentration [1, 10]: 2278 ± 31 ng/mL; CL, clearance [1, 10]: 689 ± 15 mL·h; VD, volume of distribution [1, 10]: 41.7 ± 2.5 mL; AUCdn, dose-normalized AUC [1, 11]: 1.86 ± 0.20 (ng × h/mL)μg; C0, peak concentration [1, 11]: 2353 ± 33 ng/mL; VD, volume of distribution [1, 11]: 50.9 ± 2.0 mL; CIT absorption phase ([1]; pregnant mice GD18FD, fixed dose 0.6 mg CIT ip): 1.76; AUCdn, dose-normalized AUC [1, 12]: 1.48 ± 0.21 (ng × h/mL)μg; C0, peak concentration [1, 12]: 1667 ± 38 ng/mL; CL, clearance [1, 12]: 647 ± 20 mL·h; VD, volume of distribution [1, 12]: 36.0 ± 2.6 mL; increase in VD as gestation advanced from GD14 to GD18 ([1]; weight-adjusted dose 20 mg/kg CIT ip): 22%; CIT to DCIT metabolic capacity of placental microsomes [2]: no significant CIT to DCIT metabolic capacity; time of peak fetal serum CIT concentration following maternal drug injection ([3]; E14 and E18 fetuses, maternal 20 mg/kg CIT ip): 15 min; DCIT generation from fetal liver microsomes ([4]; E14, 500 ng/mL CIT): no measurable DCIT generation; DCIT generation from fetal liver microsomes ([4]; E18, 500 ng/mL CIT): significant rate of CIT to DCIT conversion

**Q.** With `CNCCCC1(c2ccc(F)cc2)OCc2cc(C#N)ccc21` (stereo not drawn) [DCIT, desmethylcitalopram] as the molecule, how does the “time to peak DCIT concentration in fetal serum” value ([3]; E14, after maternal 20 mg/kg CIT ip) read?
**A.** Its value is 1 h.

**Q.** What about the “time to peak DCIT concentration in fetal serum” value ([3]; E18, after maternal 20 mg/kg CIT ip) of the same molecule?
**A.** The value was 2.5 h.

**Q.** What about the partition coefficient [5] of the same molecule?
**A.** The partition coefficient was 0.28.

**Q.** And the “DCIT in fetal eluate during placental perfusion with CIT (placental metabolism)” value ([6]; E18 placenta perfused with 500 ng/mL CIT, 10 min intervals over 120 min)?
**A.** The value was “not detected”.

**Q.** And the “transplacental transfer efficiency of DCIT relative to CIT (fold less efficient)” value ([6]; ex vivo perfusion, E18 placentas)?
**A.** The value was about 2 fold.

**Q.** And the Ki [7]?
**A.** Its Ki is 14 nM.

**Q.** And the “mean plasma S/R enantiomer ratio” value [8]?
**A.** The value was 0.7.
